Test: water-octanol distribution coefficient (log P value)
Format: physicochemical
Details: octanol/water; value defined by OECD Test Guideline 107
Excerpt: The higher the log P value, the higher the hydrophobicity, and the lower the log P value, the higher the hydrophilicity.

Compared with `CC(C)CCOCC(O)CO` (stereo not drawn) [3-isopentyloxy-1,2 propanediol], `C=C(C)C(=O)OCC(O)CO` (stereo not drawn) [glycerin 1-methacrylate] is lower in logP: 0.64 for the first, -0.12 for the second.

With `CC(C)CCC(C)(O)C#CC(C)(O)CCC(C)C` (stereo not drawn) [Surfynol DF 110 D, 2,5,8,11-tetramethyl-6-dodecyne-5,8-diol] the logP was 4.18.

Same assay, conditions: value defined by OECD Test Guideline 107

Compared with `CCCCC(O)CO` (stereo not drawn) [1,2-hexanediol], `CCCCC(CC)C(=O)OCC(O)CO` (stereo not drawn) [2-ethylhexanoate 2,3-dihydroxypropyl] is higher in “water-octanol distribution coefficient (log P)” value: 0.7 for the first, 1.73 for the second.

Going from `CCCC(=O)OCC(O)COC(=O)CCC` [1,3-dibutyrin] to `CCCC(=O)OCC(O)CO` (stereo not drawn) [Example 1-butyrine, 1-butyrine], the “water-octanol distribution coefficient (log P)” value falls from 1.59 to −0.21.

Going from `CCCCCCCC(O)CCCC(=O)OCC(O)CO` (stereo not drawn) [5-hydroxydodecanoate 2,3-dihydroxypropyl] to `CCCCCC(=O)OCC(O)CO` (stereo not drawn) [α-monocaproin], the “water-octanol distribution coefficient (log P)” value falls from 2.15 to 0.85.

— patent US10538681B2, “Aqueous ink for ink jet recording” (Seiko Epson Corporation, priority 2017, dated 2020)
